Entries after “also recorded” stand apart in the source; their conditions may differ. Where two headings read alike, the source gives them in different places.
Columns and labels:
Type in all cases: physicochemical
[1] = Physical stability on storage (crystalline form by XRPD before and after storage)
Protocol: (§1) Samples of Form CS2, Form CS4 and the prior art amorphous were stored under condition of 25° C./60% RH (open). Crystalline form and chemical impurity were tested.
(§2) Samples of Form CS2, Form CS4 and the prior art amorphous were stored under condition of 40° C./75% RH (open). Crystalline form and chemical impurity were tested.
(§3) Samples of Form CS2, Form CS4 and the prior art amorphous were stored under condition of 60° C./75% RH (open). Crystalline form and chemical impurity were tested.

[2] = Chemical stability on storage (purity / chemical impurity); conditions: for Change of Purity: versus initial purity
Protocol: as §1, §2, §3

[3] = Hygroscopicity by dynamic vapor sorption (DVS); conditions: for Weight gain under 80% Relative Humidity (Hygroscopicity): DVS, 25° C., 80% RH, about 10 mg of sample; for hygroscopicity as share of that of the prior art solid: relative to prior art solid, weight gain at 80% RH
Protocol: Dynamic Vapor Sorption (DVS) was collected via an SMS (Surface Measurement Systems Ltd.) intrinsic DVS instrument. Its control software is DVS-Intrinsic control software, and its analysis software is DVS-Intrinsic Analysis software. Typical Parameters for DVS test are as follows: • Temperature: 25° C. • Gas and flow rate: N2, 200 mL/min • dm/dt: 0.002%/min • RH range: 0% RH to 95% RH
Dynamic vapor sorption (DVS) was applied to test hygroscopicity of Form CS2, Form CS4 and the prior art amorphous with about 10 mg of samples.

Residual solvents test = assay: Residual solvents test
Protocol: Residual solvents of Form CS2, Form CS4 and the prior art amorphous were tested. […] According to the guideline of the International Council for Harmonization (ICH) on residual solvents, dichloromethane belongs to Class 2 solvents, and the residual solvent content must not exceed 600 ppm. It can be seen that the residue of dichloromethane in the amorphous solid is much higher than the limits of ICH guideline, and the amorphous not suitable for use as drug substance.

[4] = Particle size distribution; conditions: in Isopar G containing 0.2% lecithin
Protocol: Form CS2 and Form CS4 of the present disclosure were added into 10 mL of Isopar G (containing 0.2% lecithin). The mixture was mixed thoroughly and transferred into the SDC. The measurement was started when the sample amount indicator is in appropriate position. The average particle diameter calculated by volume, the diameter at which 10% mass is comprised of smaller particles, the diameter at which 50% mass is comprised of smaller particles and the diameter at which 90% mass is comprised of smaller particles were obtained in particle size distribution test. Subsequently, the particle size distribution plot of crystalline forms was obtained.
MV: Average particle diameter calculated by volume.
D10: the size in microns below which 10 percent of the particles reside on a volume basis.
D50: the size in microns below which 50 percent of the particles reside on a volume basis, also known as the median diameter.
D90: the size in microns below which 90 percent of the particles reside on a volume basis.

[5] = 60° C./75% RH (open), 2 weeks, listed as prior art amorphous

Structure (SMILES) | Solid Form after Storage ([1]; 25° C./60% RH (open), 6 months) | Solid Form after Storage ([1]; 40° C./75% RH (open), 6 months) | Solid Form after Storage ([1]; 60° C./75% RH (open), 2 weeks) | Purity after 6 Months ([2]; 25° C./60% RH (open), 6 months) [%] | Change of Purity ([2]; 25° C./60% RH (open), 6 months) [%] | Purity after 3 Months ([2]; 40° C./75% RH (open), 3 months) [%] | Change of Purity ([2]; 40° C./75% RH (open), 3 months) [%] | Purity after 2 Weeks ([2]; 60° C./75% RH (open), 2 weeks) [%] | Change of Purity ([2]; 60° C./75% RH (open), 2 weeks) [%] | Weight gain under 80% Relative Humidity (Hygroscopicity) [3] [%] | Residual solvents (in words) (Residual solvents test) | D10 [4] [μm] | D50 [4] [μm] | D90 [4] [μm] | MV, average particle diameter calculated by volume [4] [μm] | hygroscopicity as share of that of the prior art solid [3] | other results
C[C@]12C[C@H](c3ccc(S(C)(=O)=O)cc3)C3=C4CCC(=O)C=C4CC[C@H]3[C@@H]1CC[C@@]2(O)C(F)(F)C(F)(F)F [Amorphous, (11β, 17β)-17-hydroxy-11-[4-(methylsulfonyl)phenyl]-17-(pentafluoroethyl)estra-4,9-diene-3-one, reference compound] | Amorphous | Amorphous + Form CS2 | Amorphous + Form CS2 | 97.88 | 0.80 | 97.60 | 1.08 | 97.70 | 0.98 | 1.89 | significantly higher than specification |  |  |  |  |  | Solid Form after Storage ([1]; 40° C./75% RH (open), 6 months, listed as prior art amorphous): partially converted to Form CS2; Solid Form after Storage ([1]; 40° C./75% RH (open), 6 months, listed as prior art solid): partially converts to Form CS2; Solid Form after Storage [1, 5]: partially converted to Form CS2; Solid Form after Storage ([1]; 60° C./75% RH (open), 2 weeks, listed as prior art solid): partially converts to Form CS2; Change of Purity ([2]; 25° C./60% RH (open), 6 months, listed as amorphous): 0.80%; Change of Purity ([2]; 25° C./60% RH (open), 6 months, listed as prior art amorphous): 0.80%; stability on storage (in words) ([2]; 25° C./60% RH, 40° C./75% RH and 60° C./75% RH): unstable; Change of Purity ([2]; 40° C./75% RH (open), 3 months, listed as amorphous): 1.08%; Change of Purity ([2]; 40° C./75% RH (open), 3 months, listed as prior art amorphous): 1.08%; Change of Purity ([2]; 60° C./75% RH (open), 2 weeks, listed as amorphous): 0.98%; Change of Purity [2, 5]: 0.98%; Weight gain under 80% Relative Humidity (Hygroscopicity) ([3]; listed as prior art solids): up to 1.89%; dichloromethane residue (Residual solvents test; ICH limit 600 ppm): 64185 ppm; Residual solvents (in words) (Residual solvents test; listed as prior art): exceeds the standard
C[C@]12C[C@H](c3ccc(S(C)(=O)=O)cc3)C3=C4CCC(=O)C=C4CC[C@H]3[C@@H]1CC[C@@]2(O)C(F)(F)C(F)(F)F [Form CS2, (11β, 17β)-17-hydroxy-11-[4-(methylsulfonyl)phenyl]-17-(pentafluoroethyl)estra-4,9-diene-3-one] | remain unchanged; also recorded: Form CS2 | remain unchanged; also recorded: Form CS2 | remain unchanged; also recorded: Form CS2 | 98.58 | 0.06 | 98.37 | 0.27 | 98.59 | 0.05 | 0.23 | almost no residual solvent | 3.09 | 8.41 | 27.45 | 13.16 | less than 15% | Change of Purity ([2]; 25° C./60% RH (open), 6 months, listed as CS2): 0.06%; Change of Purity ([2]; 40° C./75% RH (open), 3 months, listed as CS2): 0.27%; Change of Purity ([2]; 60° C./75% RH (open), 2 weeks, listed as CS2): 0.05%
C[C@]12C[C@H](c3ccc(S(C)(=O)=O)cc3)C3=C4CCC(=O)C=C4CC[C@H]3[C@@H]1CC[C@@]2(O)C(F)(F)C(F)(F)F [Form CS4, (11β, 17β)-17-hydroxy-11-[4-(methylsulfonyl)phenyl]-17-(pentafluoroethyl)estra-4,9-diene-3-one] | remain unchanged; also recorded: Form CS4 | remain unchanged; also recorded: Form CS4 | remain unchanged; also recorded: Form CS4 | 99.31 | 0.13 | 99.42 | 0.02 | 99.47 | 0.03 | 0.12 | almost no residual solvent | 2.32 | 6.20 | 23.12 | 11.41 | less than 10% | Change of Purity ([2]; 25° C./60% RH (open), 6 months, listed as CS4): 0.13%; Change of Purity ([2]; 40° C./75% RH (open), 3 months, listed as CS4): 0.02%; Change of Purity ([2]; 60° C./75% RH (open), 2 weeks, listed as CS4): 0.03%

Source: patent US20210171568A1, “CRYSTALLINE FORMS OF SELECTIVE PROGESTERONE RECEPTOR MODULATOR, PROCESSES FOR PREPARATION THEREOF” (Crystal Pharmaceutical (Suzhou) Co., Ltd., priority 2017, published 2021)
